Measured values reported in patent US11220503B2, “Phthalazine derivatives, preparation method, pharmaceutical composition and usage thereof” (Shanghai SIMR Biotech Co., Ltd., priority 2015, dated 2022).

Biological target: T1, α5β3γ2 receptor (Homo sapiens, UniProt P18507+P31644)
T1 construct: expressed in transfected cells; host or cells: HEK-293 (stably transfected)
Assay: Supplementary data for cell level screening: new electrophysiology method (I. Lecker et al)
Format: cell-based
Details: for Inverse agonism efficacy(%): new method, CsCl intracellular solution, GABA 0.1˜0.3 CM, other procedures as previous method; for inverse agonism efficacy of the compound/α5IA inverse agonism efficacy: ratio to the α5IA reference run above in the table (r4 or r29)
Method: The inventors used electrophysiological methods to assay the inverse agonist efficacy of the substance to be tested. The detailed procedures are as follows: (1) Different subunits of GABAA receptors were expressed in human embryonic kidney cells 293 (HEK293). The cells were cultured in a culture medium and used as a cell model for screening potential analgesics. The α, β and γ subunits are necessary to form complete functional GABAA receptors. In this example, the inventor has established the following cell model: (a) α5 subunit (protein sequence is GenBank accession number: NP_001158509), β3 subunit (protein sequence is GenBank accession number: NP_068712) and γ2 subunit (protein sequence is GenBank accession number: NP_944494) were expressed in HEK-293 cell lines at the same time, which formed the complete functional GABAA receptors. (2) Cells were stably transfected HEK-293 cells expressing α5β3γ2 receptor, which were labeled by green fluorescent protein (GFP). Cells were grown in 10 cm dishes. The cells were passaged after reaching 80-90% confluence. During passaging, the culture medium was removed and discarded, 3 mL DMEM medium (Gibco™) was added to the dishes, the dishes were shaken slightly, and DMEM was removed and discarded. 3 mL Trypsin (Trypsin-EDTA 0.05%, Gibco™) was added and cells were digested at 37° C. for 3 minutes. Then 3 mL complete growth medium (DMEM+10% horse serum (Gibco™)) was added and the cells at the bottom of the culture dishes were dispersed. The cell suspension were transferred to a 15 mL centrifugal tube (Corning®) and then centrifuged at 200 g for 3 minutes. The supernatant was discarded, 4 mL complete growth medium was added, and the cells were resuspended by gently blowing. The cell suspension was diluted by 1:5 or 1:10 for subculturing. The cell suspension was diluted by 1:12 for electrophysiology experiment, which are added to the 24 well plate (Corning®) which has a glass slide pre-treated with poly-D-lysine. The cells were adhered to the slide before the experiment was conducted. The cells were maintained in culture for no more than 24 hours before use. (3) Compound concentration: for screening, all compounds were diluted to a final concentration of 100 nM. […] The compounds were at the concentration of 1 nM, 10 nM, 50 nM, 100 nM and 1000 nM in dose-inverse agonism efficacy (%) experiment. The whole cell patch clamp technique was used in electrophysiology experiments. The extracellular solution (ECS) contained: 150 mM NaCl, 5 mM KCl, 2.5 mM CaCl2, 1 mM MgCl2, 10 mM HEPES and 10 mM glucose (pH 7.4); […], 5 mM EGTA, 10 mM HEPES ([…] water). The currents were recorded by an EPC-10 amplifier and the PatchMaster software (HEKA). Patch electrodes with a resistance of 5-6 MΩ were pulled from borosilicate glass (Sutter). The diluted compounds were perfused by OCTAFLOWII system. GFP positive and independently growing cells were selected for recording. During recording, the membrane voltage was clamped at −60 mV. During experiment, the cells were firstly perfused with ECS for 20 seconds. When the baseline reached to a stable state, cells were then perfused with GABA solution. Then the current induced by GABA can be detected. After about 20-40 seconds, the current was stable. ECS was switched to compounds solution and the effects of the compounds were detected. At last, the perfusion solution was switched to ECS. The experiment was finished when the post-baseline returned to the pre-baseline before compounds perfusion. Only the data whose pre-baseline and post-baseline are at almost the same level were used for analysis. […] Then, compounds were diluted at the desired concentration in GABA ECS. (4) Currents were analyzed with the PatchMaster (HEKA) software. The GABA currents before (Ipre) and after (Ipost) compounds perfusion were recorded respectively. The efficacies of compounds were calculated by the following equation: inverse agonism efficacy=(Ipost-Ipre)*100/Ipre. N indicates experiment numbers. […]

T1 sequence (P31644 32-462): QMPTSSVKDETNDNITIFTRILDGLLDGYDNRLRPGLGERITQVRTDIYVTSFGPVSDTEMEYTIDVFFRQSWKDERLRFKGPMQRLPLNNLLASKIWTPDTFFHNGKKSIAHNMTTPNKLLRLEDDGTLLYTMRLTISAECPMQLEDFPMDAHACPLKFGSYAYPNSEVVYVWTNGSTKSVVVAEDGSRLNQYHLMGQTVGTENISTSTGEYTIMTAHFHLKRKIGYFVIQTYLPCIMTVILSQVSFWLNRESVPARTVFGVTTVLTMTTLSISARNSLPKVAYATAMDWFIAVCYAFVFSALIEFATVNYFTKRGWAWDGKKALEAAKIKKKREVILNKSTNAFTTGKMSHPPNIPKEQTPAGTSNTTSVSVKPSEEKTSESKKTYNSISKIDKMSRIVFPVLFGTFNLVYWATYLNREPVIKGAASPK
T1 sequence (P28472 26-473 isoform P28472-2 partner limits assumed): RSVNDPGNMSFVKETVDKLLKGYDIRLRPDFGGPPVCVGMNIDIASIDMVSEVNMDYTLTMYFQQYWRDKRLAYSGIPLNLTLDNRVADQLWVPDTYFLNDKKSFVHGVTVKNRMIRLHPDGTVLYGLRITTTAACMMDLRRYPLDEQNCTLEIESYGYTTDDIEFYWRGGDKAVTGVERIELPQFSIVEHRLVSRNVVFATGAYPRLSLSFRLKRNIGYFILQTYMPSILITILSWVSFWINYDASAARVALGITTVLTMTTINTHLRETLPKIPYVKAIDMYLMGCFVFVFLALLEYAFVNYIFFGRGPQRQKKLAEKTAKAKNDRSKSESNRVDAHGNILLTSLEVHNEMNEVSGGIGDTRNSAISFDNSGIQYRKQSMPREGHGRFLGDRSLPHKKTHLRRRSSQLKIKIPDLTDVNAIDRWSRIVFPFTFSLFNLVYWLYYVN
T1 sequence (P18507 40-475): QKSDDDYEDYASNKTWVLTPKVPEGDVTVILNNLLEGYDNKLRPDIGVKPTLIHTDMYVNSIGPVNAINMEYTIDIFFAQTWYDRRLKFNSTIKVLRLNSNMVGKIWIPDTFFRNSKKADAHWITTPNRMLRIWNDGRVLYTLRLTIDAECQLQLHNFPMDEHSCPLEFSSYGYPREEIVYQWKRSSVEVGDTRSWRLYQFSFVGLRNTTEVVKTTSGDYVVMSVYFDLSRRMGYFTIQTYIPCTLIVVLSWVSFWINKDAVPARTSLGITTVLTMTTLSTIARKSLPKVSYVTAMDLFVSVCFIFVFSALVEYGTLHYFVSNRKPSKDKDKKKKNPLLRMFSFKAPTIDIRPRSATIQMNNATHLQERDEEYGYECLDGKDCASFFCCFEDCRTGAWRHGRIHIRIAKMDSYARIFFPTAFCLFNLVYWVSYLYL

| SMILES | Inverse agonism efficacy(%) | inverse agonism efficacy of the compound/α5IA inverse agonism efficacy |
| --- | --- | --- |
| Cc1cc(-c2nnc3c4ccccc4c(OCc4ccc(C(N)=O)cn4)nn23)no1 [Compound 28, 6-(((3-(5-methylisoxazol-3-yl)-[1,2,4]triazolo[3,4-a]phthalazin-6-yl)oxy)methyl)nicotinamide] | −19.86 | 1.143 |
| Cc1cc(-c2nnc3c4ccccc4c(OCc4ccc(C(=O)NC5CCN(C)CC5)cn4)nn23)no1 [Compound 11, 6-(((3-(5-methylisoxazol-3-yl)-[1,2,4]triazolo[3,4-a]phthalazin-6-yl)oxy)methyl)-N-(1-methylpiperidin-4-yl)nicotinamide] | −17.71 | 1.020 |
| Cc1cc(-c2nnc3c4ccccc4c(OCc4ccc(C(=O)NCCN5CCOCC5)cn4)nn23)no1 [Compound 12, 6-(((3-(5-methylisoxazol-3-yl)-[1,2,4]triazolo[3,4-a]phthalazin-6-yl)oxy)methyl)-N-(2-morpholinoethyl)nicotinamide] | −19.0625 | 1.098 |
| Cc1cc(-c2nnc3c4ccccc4c(OCc4ccc(C(=O)NCCS(C)(=O)=O)cn4)nn23)no1 [Compound 27, 6-(((3-(5-methylisoxazol-3-yl)-[1,2,4]triazolo[3,4-a]phthalazin-6-yl)oxy)methyl)-N-(2-(methylsulfonyl)ethyl)nicotinamide] | −32.1 | 1.726 |
| COC1CCN(C(=O)c2ccc(COc3nn4c(-c5cc(C)on5)nnc4c4ccccc34)nc2)CC1 [Compound 22, (4-methoxypiperidin-1-yl)(6-(((3-(5-methylisoxazol-3-yl)-[1,2,4]triazolo[3,4-a]phthalazin-6-yl)oxy)methyl)pyridin-3-yl)methanone] | −33 | 1.774 |
| O=C(NCC(F)(F)F)c1ccc(COc2nn3c(-c4cc(CO)on4)nnc3c3ccccc23)nc1 [Compound 42, 6-(((3-(5-(hydroxymethyl)isoxazol-3-yl)-[1,2,4]triazolo[3,4-a]phthalazin-6-yl)oxy)methyl)-N-(2,2,2-trifluoroethyl)nicotinamide] | −32.5 | 1.871 |
| CS(=O)(=O)NNC(=O)c1ccc(COc2nn3c(-c4cc(CO)on4)nnc3c3ccccc23)nc1 [Compound 53, N′-(6-(((3-(5-(hydroxymethyl)isoxazol-3-yl)-[1,2,4]triazolo[3,4-a]phthalazin-6-yl)oxy)methyl)nicotinoyl)methanesulfonohydrazide] | −22.8 | 1.313 |
| Cc1cc(-c2nnc3c4ccccc4c(OCc4ccc(C(=O)NCC5CCCO5)cn4)nn23)no1 (stereo not drawn) [Compound 26, 6-(((3-(5-methylisoxazol-3-yl)-[1,2,4]triazolo[3,4-a]phthalazin-6-yl)oxy)methyl)-N-((tetrahydrofuran-2-yl)methyl)nicotinamide] | −21.5 | 1.238 |
| O=C(c1ccc(COc2nn3c(-c4cc(CO)on4)nnc3c3ccccc23)nc1)N1CCC1 [Compound 49, azetidin-1-yl-(6-(((3-(5-(hydroxymethyl)isoxazol-3-yl)-[1,2,4]triazolo[3,4-a]phthalazin-6-yl)oxy)methyl)pyridin-3-yl)methanone] | −22.2 | 1.278 |
